Experiments:
cyclin D1/cdk 4 enzyme = molecular target: T1, cyclin D1/cdk 4 enzyme (Homo sapiens, UniProt P11802); assay: CDK4 ELISA kinase assay (phospho-Rb ser 795 detection); format: biochemical; conditions: In Vitro Enzyme Assays, 200 μM ATP, read-out: CDK4 IC50
T1 construct: made in house; host or cells: Sf9 insect cells, recombinant baculovirus
Summary of the method: (§1)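 Partially purified Sf9-expressed cyclin D1/CDK4, cyclin E/CDK2 or cyclin B/CDK1 phosphorylated plate-bound GST-Rb C-terminal fragment with 200 μM ATP at 30° C for 1 h.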

cyclin E/CDK2 enzyme = molecular target: T2, cyclin E/CDK2 enzyme (Homo sapiens, UniProt P24941); assay: CDK2 ELISA kinase assay (phospho-Rb ser 795 detection); format: biochemical; conditions: In Vitro Enzyme Assays, read-out: CDK2 IC50
T2 construct: made in house; host or cells: Sf9 insect cells, recombinant baculovirus
Summary of the method: as §1

cyclin B/CDK1 enzyme = molecular target: T3, cyclin B/CDK1 enzyme (Homo sapiens, UniProt P06493); assay: CDK1 ELISA kinase assay (phospho-Rb ser 795 detection); format: biochemical; conditions: In Vitro Enzyme Assays, read-out: CDK1 IC50
T3 construct: purchased New England BioLabs; host or cells: Sf9 insect cells, recombinant baculovirus
T3 sequence (P06493 whole entry): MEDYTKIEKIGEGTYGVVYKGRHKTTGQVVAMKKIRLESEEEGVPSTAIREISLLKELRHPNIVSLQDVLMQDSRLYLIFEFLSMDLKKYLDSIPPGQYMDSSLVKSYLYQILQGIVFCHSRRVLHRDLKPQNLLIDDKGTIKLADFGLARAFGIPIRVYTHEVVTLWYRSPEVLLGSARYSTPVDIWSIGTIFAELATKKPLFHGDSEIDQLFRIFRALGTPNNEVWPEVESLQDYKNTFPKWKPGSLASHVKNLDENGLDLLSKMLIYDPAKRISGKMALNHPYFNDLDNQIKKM
T3 sequence (P14635 whole entry partner): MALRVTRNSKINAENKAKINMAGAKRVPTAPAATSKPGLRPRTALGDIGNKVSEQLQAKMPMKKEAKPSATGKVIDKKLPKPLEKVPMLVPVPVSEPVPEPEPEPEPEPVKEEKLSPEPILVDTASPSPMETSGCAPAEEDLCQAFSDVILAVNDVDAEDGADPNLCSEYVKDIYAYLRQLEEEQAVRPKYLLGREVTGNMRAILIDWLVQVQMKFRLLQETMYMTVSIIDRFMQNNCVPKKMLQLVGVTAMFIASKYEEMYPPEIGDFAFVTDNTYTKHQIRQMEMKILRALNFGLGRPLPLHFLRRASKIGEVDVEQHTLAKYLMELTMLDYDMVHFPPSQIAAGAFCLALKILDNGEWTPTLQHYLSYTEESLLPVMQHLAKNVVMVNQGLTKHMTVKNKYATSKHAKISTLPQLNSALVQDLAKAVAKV
Summary of the method: as §1

BT474 = assay: Cytotoxicity assay (SRB), BT474; format: cell-based; conditions: Homo sapiens, BT-474, 144 h, BT474 cells, SRB, 6 days; read-out: In Vitro Cellular Activity IC50 BT474
Summary of the method: (§2)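 Plate cells, let them attach overnight, add compound dilutions in RPMI 1640/5% FBS, and incubate 3 days (BT474 6 days). Then fix with TCA, stain with SRB, dissolve the dye in Tris and read at 540 nm.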

HCT-116 = assay: Cytotoxicity assay (SRB), HCT-116; format: cell-based; conditions: Homo sapiens, HCT-116, 72 h, HCT116 cells, SRB, three days; read-out: In Vitro Cellular Activity IC50 HCT116
Summary of the method: as §2

LoVo = assay: Cytotoxicity assay (SRB), LoVo; format: cell-based; conditions: Homo sapiens, LoVo, 72 h, LoVo cells, SRB, three days; read-out: In Vitro Cellular Activity IC50 LOVO
Summary of the method: as §2

MCF-7 = assay: Cytotoxicity assay (SRB), MCF-7; format: cell-based; conditions: Homo sapiens, MCF7, 72 h, MCF-7 cells, SRB, three days; read-out: In Vitro Cellular Activity IC50 MCF-7
Summary of the method: as §2

T1 sequence (P11802 whole entry, species assumed): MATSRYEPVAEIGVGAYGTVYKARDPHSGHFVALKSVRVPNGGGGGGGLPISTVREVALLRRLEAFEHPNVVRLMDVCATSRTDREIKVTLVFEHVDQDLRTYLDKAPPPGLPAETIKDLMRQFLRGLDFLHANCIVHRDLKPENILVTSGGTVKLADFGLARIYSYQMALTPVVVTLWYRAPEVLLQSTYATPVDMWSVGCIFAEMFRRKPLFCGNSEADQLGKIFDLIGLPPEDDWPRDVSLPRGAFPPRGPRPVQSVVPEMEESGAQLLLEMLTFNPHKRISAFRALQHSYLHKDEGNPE
T1 sequence (P24385 whole entry partner, species assumed): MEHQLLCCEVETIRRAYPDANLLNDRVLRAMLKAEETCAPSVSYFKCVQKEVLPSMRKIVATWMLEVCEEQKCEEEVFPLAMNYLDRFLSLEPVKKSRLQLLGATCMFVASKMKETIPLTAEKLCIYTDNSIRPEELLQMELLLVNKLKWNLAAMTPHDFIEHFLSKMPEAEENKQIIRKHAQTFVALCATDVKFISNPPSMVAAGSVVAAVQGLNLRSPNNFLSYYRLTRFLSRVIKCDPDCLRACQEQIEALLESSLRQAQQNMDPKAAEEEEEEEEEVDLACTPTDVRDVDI

Compound | IC50 (cyclin D1/cdk 4 enzyme) [µM] | IC50 (cyclin E/CDK2 enzyme) [µM] | IC50 (cyclin B/CDK1 enzyme) [µM] | IC50 (BT474) [µM] | IC50 (HCT-116) [µM] | IC50 (LoVo) [µM] | IC50 (MCF-7) [µM] | melting point
O=C1NC(=O)c2ccc(I)cc2/C1=C/Nc1ccc(CN2CCOCC2)cc1 [Example 296, (4Z)-6-Iodo-4-({[4-(morpholin-4-ylmethyl)phenyl]amino}methylene)isoquinoline-1,3(2H,4H)-dione] | 2.1 | > 50 | > 50 | 6.2 | 4 | 5 | 2.6 | 186 to 187 °C
CN1CCN(c2ccc(N/C=C3\C(=O)NC(=O)c4ccc(-c5ccoc5)cc43)cc2F)CC1 [Example 297, (4Z)-4-({[3-Fluoro-4-(4-methylpiperazin-1-yl)phenyl]amino}methylene)-6-(3-furyl)isoquinoline-1,3(2H,4H)-dione] | 0.08 | > 50 | > 50 | 1.2 | 2.2 | 2 | 0.95 | 203 to 204 °C
COC[C@@H]1CCCN1Cc1ccc(N/C=C2\C(=O)NC(=O)c3ccc(-c4ccc(F)cc4)cc32)cc1 [Example 299, (4Z)-6-(4-Fluorophenyl)-4-{[(4-{[(2S)-2-(methoxymethyl)pyrrolidin-1-yl]methyl}phenyl)amino]methylene}isoquinoline-1,3(2H,4H)-dione] | 0.19 | > 50 | > 50 | 2 | 3 | 7.7 | 0.8 | 162 to 163 °C
O=C1NC(=O)c2ccc(-n3cccc3)cc2C1=CNCc1cc(=O)c(O)co1 [Example 312, 4-{[(5-Hydroxy-4-oxo-4H-pyran-2-ylmethyl)-amino]-methylene}-6-pyrrol-1-yl-4H-isoquinoline-1,3-dione] | 0.27 | 21.6 | > 50 | 39 | > 50 | > 50 | > 50 | 310 to 312 °C (dec.)
COc1coc(CNC=C2C(=O)NC(=O)c3ccc(Br)cc32)cc1=O [Example 316, 6-Bromo-4-{[(5-methoxy-4-oxo-4H-pyran-2-ylmethyl)-amino]-methylene}-4H-isoquinoline-1,3-dione] | 1.3 | 16.9 | > 50 | 4.9 | 8.9 | 5.7 | 9 | 259 to 261 °C (dec.)
COc1coc(CNC=C2C(=O)NC(=O)c3ccc(-n4cccc4)cc32)cc1=O [Example 317, 4-{[(5-Methoxy-4-oxo-4H-pyran-2-ylmethyl)-amino]-methylene}-6-pyrrol-1-yl-4H-isoquinoline-1,3-dione] | 0.04 | > 50 | > 50 | 5.2 | 12 | 4.7 | 8.4 | 251 to 254 °C (dec.)
C[C@@H]1CN(c2ccc(N/C=C3\C(=O)NC(=O)c4ccc(I)cc43)cc2F)C[C@H](C)N1 [Example 319, (4Z)-4-[({4-[(3R,5S)-3,5-Dimethylpiperazin-1-yl]-3-fluorophenyl}amino)methylene]-6-iodoisoquinoline-1,3(2H,4H)-dione] | 1.4 | > 50 | > 50 | 3.1 | 1.5 | 2.1 | 2.6 | 173 to 174 °C
C[C@@H]1CN(c2ccc(N/C=C3\C(=O)NC(=O)c4ccc(-c5ccoc5)cc43)cc2F)C[C@H](C)N1 [Example 324, (4Z)-4-[({4-[(3R,5S)-3,5-Dimethylpiperazin-1-yl]-3-fluorophenyl}amino)methylene]-6-(3-furyl)isoquinoline-1,3(2H,4H)-dione] | 0.17 | > 50 | > 50 | 0.74 | 0.96 | 3.3 | 0.83 | 222 to 223 °C
C[C@@H]1CN(c2ccc(N/C=C3\C(=O)NC(=O)c4ccc(-c5ccsc5)cc43)cc2F)C[C@H](C)N1 [Example 325, (4Z)-4-[({4-[(3R,5S)-3,5-Dimethylpiperazin-1-yl]-3-fluorophenyl}amino)methylene]-6-thien-3-ylisoquinoline-1,3(2H,4H)-dione] | 0.14 | > 50 | 39.7 | 1.2 | 0.72 | 2.4 | 1 | 214 to 215 °C
C[C@@H]1CN(c2ccc(N/C=C3\C(=O)NC(=O)c4ccc(-c5ccc(F)cc5)cc43)cc2F)C[C@H](C)N1 [Example 326, (4Z)-4-[({4-[(3R,5S)-3,5-Dimethylpiperazin-1-yl]-3-fluorophenyl}amino)methylene]-6-(4-fluorophenyl)isoquinoline-1,3(2H,4H)-dione] | 9.2 | > 50 | 31.4 | 0.98 | 1 | 3.7 | 1.8 | 182 to 183 °C
CN1CCC(c2ccc(N/C=C3\C(=O)NC(=O)c4ccc(-c5ccsc5)cc43)cc2)CC1 [Example 327, (4Z)-4-({[4-(1-Methylpiperidin-4-yl)phenyl]amino}methylene)-6-thien-3-ylisoquinoline-1,3(2H,4H)-dione] | 0.06 | > 50 | > 50 | 2.5 | 1.5 | 2.9 | 2.2 | 217 to 218 °C
CN1CCN(c2ccc(N/C=C3\C(=O)NC(=O)c4ccc(-n5cccc5)cc43)cc2F)CC1 [Example 328, (4Z)-4-({[3-Fluoro-4-(4-methylpiperazin-1-yl)phenyl]amino}methylene)-6-(1H-pyrrol-1-yl)isoquinoline-1,3(2H,4H)-dione] | 0.77 | > 50 | > 50 | 1.6 | 2.4 | 8.7 | 1.9 | 206 to 207 °C
COC[C@H]1CCCN1Cc1ccc(N/C=C2\C(=O)NC(=O)c3ccc(-c4ccoc4)cc32)cc1 [Example 330, (4Z)-6-(3-Furyl)-4-{[(4-{[(2R)-2-(methoxymethyl)pyrrolidin-1-yl]methyl}phenyl)amino]methylene}isoquinoline-1,3(2H,4H)-dione] | 0.2 | > 50 | > 50 | 1 | 2.1 | 2.3 | 0.69 | 130 to 131 °C
COC[C@H]1CCCN1Cc1ccc(N/C=C2\C(=O)NC(=O)c3ccc(-c4ccsc4)cc32)cc1 [Example 331, (4Z)-4-{[(4-{[(2R)-2-(Methoxymethyl)pyrrolidin-1-yl]methyl}phenyl)amino]methylene}-6-thien-3-ylisoquinoline-1,3(2H,4H)-dione] | 0.17 | > 50 | > 50 | 3.3 | 1.5 | 3 | 1.7 | 95 to 96 °C
COc1cnc(CN/C=C2\C(=O)NC(=O)c3ccc(Br)cc32)cc1O [Example 332, 6-Bromo-4-{[(4-hydroxy-5-methoxy-pyridin-2-ylmethyl)-amino]-methylene}-4H-isoquinoline-1,3-dione] | 0.12 | 2.2 | 21.3 | 0.54 | 3.5 | 1.3 | 3.2 | 209 to 211 °C (dec.)
CN1CCC(c2ccc(N/C=C3\C(=O)NC(=O)c4ccc(Br)cc43)cc2)CC1 [Example 344, (4Z)-6-Bromo-4-({[4-(1-methylpiperidin-4-yl)phenyl]amino}methylene)isoquinoline-1,3(2H,4H)-dione] | 0.46 | > 50 | > 50 | 4.2 | 2.6 | 2.8 | 1.6 | 217 to 218 °C
COc1ccc(-c2ccc3c(c2)/C(=C/Nc2ccc(N4C[C@@H](C)N[C@@H](C)C4)c(F)c2)C(=O)NC3=O)cc1 [Example 345, (4Z)-4-[({4-[(3R,5S)-3,5-Dimethylpiperazin-1-yl]-3-fluorophenyl}amino)methylene]-6-(4-methoxyphenyl)isoquinoline-1,3(2H,4H)-dione] | 15.4 | 43.4 | 28.3 | 0.91 | 0.94 | 1.2 | 1.4 | 227 to 228 °C
